Experiments:
NanoLuc:KDR = test: Cell-based luciferase assay, HEK293 cells expressing NanoLuc:KDR (NanoLuc on the cell surface), ± extracellular inhibitor JRW-0344; conditions: 10 μM substrate ± 20 μM inhibitor, FIG. 2A
Protocol: (§1) FIGS. 2A-2D show extracellular bioluminescent activity of exemplary compounds in HEK293 cells. HEK293 cells were transfected with two different membrane bound NANOLUC® fusions: 1) NanoLuc:KDR, presenting NanoLuc on the outside of the membrane; 2) KDR:NanoLuc, presenting NanoLuc on the inside of the membrane. The cell impermeable NANOLUC® inhibitor JRW-0344 (disclosed in U.S. Ser. No. 15/192,420 to Duellman et al., “THIENOPYRROLE COMPOUNDS AND USES THEREOF,” filed Jun. 24, 2016), was added to the cells to inhibit extracellular bioluminescent activity.
(§2) HEK293 cells were maintained in DMEM containing 100 IU/ml penicillin, 100 μg/ml streptomycin, and 10% fetal calf serum at 37° C. in 5% CO2. Dulbecco's modified eagle medium (DMEM), Opti-MEM, Penicillin/Streptomycin, and Trypsin-EDTA are purchased from Life Technologies (Carlsbad). Fetal calf serum (FBS) is purchased from HyClone (GE Healthcare). Microtiter plates were purchased from Corning.
(§3) HEK293 cells were transiently transfected with two different integral membrane NanoLuc fusion proteins: 1) NanoLuc:KDR, presenting NanoLuc on the cell surface; 2) KDR:NanoLuc, presenting NanoLuc in the interior of the cell. After 24 hours, transfected cells were collected, resuspended in OptiM at 200,000 cell/ml and plated into wells of white, 96-well plates at 100 μL/well. For luminescent measurements, cells were treated with the indicated substrates at a final concentration of 10 μM or 20 μM in the presence or absence of 20 μM cell impermeable NanoLuc inhibitor JRW-0344. The luminescent signal was analyzed 3 minutes after substrate addition using a GLOMAX® Discover multimode detection plate reader (Promega).

[1] = molecular target: purified NANOLUC® Luciferase (Oplophorus gracilirostris, UniProt Q9GV45, A31E/A60N/A81I/F95D/I117V/K70R/L54V/L99Q/M102K/N193R/P142E/Q151K/Q38R/Q45L/V71I/Y165I); format: biochemical; conditions: for RLU at 100 uM: relative value, furimazine set to 1, purified NanoLuc, initial light output three minutes after substrate addition
Chain of purified NANOLUC® Luciferase (Q9GV45 28-196 with tags or gaps with the stated changes limits assumed): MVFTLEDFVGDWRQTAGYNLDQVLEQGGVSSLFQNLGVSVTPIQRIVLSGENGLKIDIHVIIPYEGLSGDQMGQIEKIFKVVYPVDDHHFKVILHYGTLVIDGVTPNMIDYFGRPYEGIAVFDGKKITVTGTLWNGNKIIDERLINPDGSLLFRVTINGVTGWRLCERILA
Protocol: Each compound to be screened was dissolved in DMSO (5 mM) and then further diluted to 100 uM in NANO-GLO® Luciferase Assay Buffer. Each diluted substrate was then combined in equal volumes with purified NANOLUC® Luciferase diluted into CO2 independent media+10% FBS. Initial light output for each substrate was measured in a GloMax®-Multi+ luminometer three minutes after substrate addition and then at five minute intervals as a means to determine signal half-life. […] Km was calculated using GraphPad Prism using non linear Michaelis-Menten regression.

[2] = tested on: Nluc-b2 adrenergic receptor (B2AR); test: Bioluminescence imaging of Nluc-B2AR in HeLa cells; format: cell-based; conditions: 10 uM substrate, Olympus LV200, FIGS. 4A and 4B
Protocol: FIGS. 4A and 4B show the results of imaging of Nluc-B2AR in HeLa cells using furimazine and JRW-0769. HeLa cells were reverse transfected with an expression construct for Nluc-b2 adrenergic receptor (B2AR) and plated into a LabTEKII chambered coverslip (50,000 cells per well in 400 uL medium) and incubated overnight. For imaging, the medium was removed and replaced with CO2-independent medium. Immediately before placing the sample onto the imaging instrument, Furimazine or JRW-0769 was added to the cells at a final concentration of 10 uM. Image acquisition was performed on an Olympus LV200 bioluminescence imager using a 40×/0.95 NA objective with electromultiplying gain set to 400 and an acquisition time of 0.5 sec (Furimazine) and 2.5 sec (JRW-0769).
HeLa cells were reverse transfected with an expression construct for Nluc-b2 adrenergic receptor (B2AR) and plated into a LabTEKII chambered coverslip (50,000 cells per well in 400 uL medium) and incubated overnight. For imaging, the medium was removed and replaced with CO2-independent medium. Immediately before placing the sample onto the imaging instrument, Furimazine or JRW-0769 was added to the cells at a final concentration of 10 uM. […]

KDR:NanoLuc [3] = test: Lytic vs. live cell format, HEK293 cells expressing KDR:NanoLuc; format: cell-based; conditions: digitonin (lytic) or JRW-0344 (live), FIG. 3C
Protocol: FIGS. 3A-D show the activities of cell permeable and cell impermeable compounds at various substrate concentrations. HEK293 cells were transfected (1:100 carrier DNA) with the fusion protein KDR:NanoLuc, which presents membrane bound NanoLuc on the inside of the membrane. Cells were then treated with digitonin (for lytic format) or JRW-0344 (for live cell format). Both sets were treated with varying substrate concentrations to give Michaelis-Menten type plots. […] However, substrates that are cell impermeable (or mostly impermeable) show large differences between live and lytic cell formats (FIG. 3C).
HEK293 cells were transfected (1:100 carrier DNA) with the fusion protein KDR:NanoLuc, which presents membrane bound NanoLuc on the inside of the membrane. Cells were then treated with digitonin to lyse the cell membrane (for lytic format) or JRW-0344 (for live cell format) to compare activity of cell permeable and non-cell permeable substrates. Both sets were treated with varying substrate concentrations to give Michaelis-Menten type plots. […] However, substrates that are cell impermeable (or mostly impermeable) show large differences between live and lytic cell formats (FIG. 3C).

KDR:NanoLuc [4] = test: Cell-based luciferase assay, HEK293 cells expressing KDR:NanoLuc (NanoLuc in the interior of the cell), ± extracellular inhibitor JRW-0344; conditions: HEK293 expressing KDR:Nluc; 10 μM substrate ± 20 μM JRW-0344; FIG. 2C
Protocol: as §1, §2, §3

Row | Structure (SMILES) | Difference in RLU's in the presence and absence of the extracellular inhibitor (NanoLuc:KDR) | RLU at 100 uM [1] | Localization of the imaged Nluc-B2AR signal [2] | Lowered activity in the live cell format versus lytic format (KDR:NanoLuc [3]) [fold] | RLU and effect of the extracellular inhibitor (KDR:NanoLuc [4]) | RLU (absolute light output that is set to 1) ([1]; 2.5 ng/mL NanoLuc)
1 | O=c1c(Cc2ccc(OCCCCCCS(=O)(=O)[O-])c(F)c2)nc2c(Cc3ccccc3)[nH]c(-c3ccccc3)cn1-2.[Na+] [JRW-0769, sodium 6-(4-((8-benzyl-3-oxo-6-phenyl-3,7-dihydroimidazo[1,2-a]pyrazin-2-yl)methyl)-2-fluorophenoxy)hexane-1-sulfonate] | Larger differences in RLU's | 0.1 | limited to membrane-localized receptor | 100 | much dimmer and can be inhibited close to background level | 
2 | O=c1c(Cc2cccc(OCCCCCCS(=O)(=O)[O-])c2)nc2c(Cc3ccccc3)[nH]c(-c3ccccc3)cn1-2.[Na+] [JRW-0703, sodium 6-(3-((8-benzyl-3-oxo-6-phenyl-3,7-dihydroimidazo[1,2-a]pyrazin-2-yl)methyl)phenoxy)hexane-1-sulfonate] | Larger differences in RLU's | 0.016 |  | 100 | much dimmer and can be inhibited close to background level | 
3 | O=c1c(Cc2ccc(OCCCCCCS(=O)(=O)[O-])c(Cl)c2)nc2c(Cc3ccccc3)[nH]c(-c3ccccc3)cn1-2.[Na+] [JRW-0728, sodium 6-(4-((8-benzyl-3-oxo-6-phenyl-3,7-dihydroimidazo[1,2-a]pyrazin-2-yl)methyl)-2-chlorophenoxy)hexane-1-sulfonate] | Larger differences in RLU's | 0.14 |  | 100 | much dimmer and can be inhibited close to background level | 
4 | O=c1c(Cc2ccco2)nc2c(Cc3ccccc3)[nH]c(-c3ccccc3)cn1-2 [Furimazine, reference compound] |  | 1 | intracellular Nluc-B2AR |  |  | ~1.0×10^7 RLU
5 | O=c1c(Cc2ccc(OCCCCCCBr)c(Cl)c2)nc2c(Cc3ccccc3)[nH]c(-c3ccccc3)cn1-2 [JRW-0720, 8-benzyl-2-(4-((6-bromohexyl)oxy)-3-chlorobenzyl)-6-phenylimidazo[1,2-a]pyrazin-3(7H)-one] | Small differences in RLU's | 0.0085 |  |  | not affected by the extracellular inhibitor | 
